Measured values from patent publication US20040116513A1, “Method to alter the isomeric profile of trans fatty acid in ruminant meat and milk and to increase the concentration of $I(cis)-11 conjugated linoleic acid” (priority 2000, published 2004).

Tests used:
lactating dairy cow = assay: Vitamin E tolerated dose extrapolated to lactating dairy cow; type: in vivo; details: 500 kg lactating dairy cow, extrapolated from chicks
Source text: Vitamin E has a toxic effect only at very high dosages. In growing chicks, daily intake of 1000 IU/kg of body weight is without negative effects. Corresponding dietary dose in a 500 kg lactating dairy cow would be 500 000 IU/d which far exceeds the effective dose range in this invention as described before.

growing chicks = details: cited from earlier work
[1] = test system: multiparous Holstein cows; assay: Animal study of dietary addition of vitamin E to an oilseed diet: milk production and milk fatty acid profile; type: in vivo, cow; details: result in words
Protocol: The effect of Vitamin E addition in the diet on milk fat depression as well as on the biohydrogenation shift from trans-11 to trans-10 fatty acids classically observed upon feeding of high doses of unsaturated fatty acids, was tested in vivo with six multiparous Holstein cows that yielded more than 25 kg milk/d.
A Latin square experimental design consisting of three groups of two cows, three periods of four weeks and three diets (control, oilseed and oilseed+tocopheryl-acetate) was followed. For all groups, the mixed basal diet consisted, in dry matter terms, of 30% grass silage, 46% corn silage, 13% dried sugar beet pulp, 10% soybean meal and 1% mineral & vitamin mixture. The oilseed concentrate consisted of 50% barley, 25% rapeseed and 25% linseed, whereas its control counterpart was made of 50% barley, 25% rapeseed meal and 25% linseed meal.
The amounts of oilseeds concentrate offered were calculated to provide approximately 550 g/d of supplemental lipids. In addition, cows fed oilseed diet plus Vitamin E received 9600 IU of the vitamin per day, together with the oilseed concentrate.
Milk weights were automatically recorded daily at each milking. Milk samples were taken during the last week of each period and analysed for crude protein, fat and fatty acid profile. Quantification of the trans-C18:1 and CLA isomers was performed by gas chromatography as described in Griinari et al. (1998).

CC(=O)Oc1c(C)c(C)c2c(c1C)CCC(C)(CCC[C@H](C)CCC[C@H](C)CCCC(C)C)O2 (mixture of isomers) [vitamin E, all-rac-α-tocopheryl acetate]
corresponding dietary dose without negative effects (lactating dairy cow): 500 000 IU/d | daily intake without negative effects (growing chicks): 1000 IU/kg of body weight | CLA content (cis-9, trans-11 C18:2) of milk fat [1]: increased CLA content dramatically | level of trans-10 C18:1 in milk fat [1]: decreased to control levels | level of trans-11 C18:1 in milk fat [1]: increased significantly | levels of C4:0 to C16:0 saturated fatty acids in milk [1]: no major impact | levels of stearic acid (C18:0) in milk [1]: no major impact | milk fat yield [1]: complete recovery | shift in the ruminal biohydrogenation process (trans-11 to trans-10) [1]: completely abolished | total monounsaturated C18 (C18:1) fatty acids in milk [1]: no major impact
